Experimental data published in ChEMBL document CHEMBL1122846, “Design and synthesis of new transition-state analogue inhibitors of aspartate transcarbamylase” (J Med Chem, 1985).

Tests used:
[1] = Compound is evaluated for inhibition of aspartate transcarbamoylase (ATCase); parameters: species or system Escherichia coli
[2] = Compound is evaluated for inhibition of aspartate transcarbamoylase (ATCase).; parameters: species or system Escherichia coli

SMILES | Ki [1] [µM] | Ki [2] [µM]
O=C(O)CC(OC(=O)CP(=O)(O)O)C(=O)O (configuration not stated) | 2 | –
O=C(O)CC(SCP(=O)(O)O)C(=O)O (configuration not stated) | – | 1100
O=C(O)CC(NS(=O)(=O)CP(=O)(O)O)C(=O)O (configuration not stated) | 500 | –
O=C(O)CC(CS(=O)(=O)CP(=O)(O)O)C(=O)O (configuration not stated) | 650 | –
O=C(O)CC(NC(=O)CP(=O)(O)O)C(=O)O (configuration not stated) [SPARFOSIC ACID] | 0.03 | –

Continued, in another order:

Ki [1] [µM] | SMILES | Ki [2] [µM]
2300 | O=C(O)CC(C[S+]([O-])CP(=O)(O)O)C(=O)O (configuration not stated) | –
430 | O=C(O)CC(CSCP(=O)(O)O)C(=O)O (configuration not stated) | –
